From patent publication US7998987B2, “Inhibitors of c-Met and uses thereof” (Vertex Pharmaceuticals Incorporated, priority 2005, dated 2011)

Biological target: c-Met (Homo sapiens, UniProt P08581)
Test: Ki determination for the inhibition of c-Met kinase activity (standard coupled enzyme system)
Type: biochemical
Conditions: coupled enzyme system, 200 μM ATP, 80 nM c-Met, 30° C.; read-out: c-Met Ki
Procedure, shortened: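 The kinase (80 nM) turned over polyGluTyr (10 μM) with ATP (200 μM, added to start), coupled to NADH oxidation via pyruvate kinase/lactate dehydrogenase at pH 7.5 HEPES, 1.5% DMSO.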

c-Met, sequence (P08581 25-1390): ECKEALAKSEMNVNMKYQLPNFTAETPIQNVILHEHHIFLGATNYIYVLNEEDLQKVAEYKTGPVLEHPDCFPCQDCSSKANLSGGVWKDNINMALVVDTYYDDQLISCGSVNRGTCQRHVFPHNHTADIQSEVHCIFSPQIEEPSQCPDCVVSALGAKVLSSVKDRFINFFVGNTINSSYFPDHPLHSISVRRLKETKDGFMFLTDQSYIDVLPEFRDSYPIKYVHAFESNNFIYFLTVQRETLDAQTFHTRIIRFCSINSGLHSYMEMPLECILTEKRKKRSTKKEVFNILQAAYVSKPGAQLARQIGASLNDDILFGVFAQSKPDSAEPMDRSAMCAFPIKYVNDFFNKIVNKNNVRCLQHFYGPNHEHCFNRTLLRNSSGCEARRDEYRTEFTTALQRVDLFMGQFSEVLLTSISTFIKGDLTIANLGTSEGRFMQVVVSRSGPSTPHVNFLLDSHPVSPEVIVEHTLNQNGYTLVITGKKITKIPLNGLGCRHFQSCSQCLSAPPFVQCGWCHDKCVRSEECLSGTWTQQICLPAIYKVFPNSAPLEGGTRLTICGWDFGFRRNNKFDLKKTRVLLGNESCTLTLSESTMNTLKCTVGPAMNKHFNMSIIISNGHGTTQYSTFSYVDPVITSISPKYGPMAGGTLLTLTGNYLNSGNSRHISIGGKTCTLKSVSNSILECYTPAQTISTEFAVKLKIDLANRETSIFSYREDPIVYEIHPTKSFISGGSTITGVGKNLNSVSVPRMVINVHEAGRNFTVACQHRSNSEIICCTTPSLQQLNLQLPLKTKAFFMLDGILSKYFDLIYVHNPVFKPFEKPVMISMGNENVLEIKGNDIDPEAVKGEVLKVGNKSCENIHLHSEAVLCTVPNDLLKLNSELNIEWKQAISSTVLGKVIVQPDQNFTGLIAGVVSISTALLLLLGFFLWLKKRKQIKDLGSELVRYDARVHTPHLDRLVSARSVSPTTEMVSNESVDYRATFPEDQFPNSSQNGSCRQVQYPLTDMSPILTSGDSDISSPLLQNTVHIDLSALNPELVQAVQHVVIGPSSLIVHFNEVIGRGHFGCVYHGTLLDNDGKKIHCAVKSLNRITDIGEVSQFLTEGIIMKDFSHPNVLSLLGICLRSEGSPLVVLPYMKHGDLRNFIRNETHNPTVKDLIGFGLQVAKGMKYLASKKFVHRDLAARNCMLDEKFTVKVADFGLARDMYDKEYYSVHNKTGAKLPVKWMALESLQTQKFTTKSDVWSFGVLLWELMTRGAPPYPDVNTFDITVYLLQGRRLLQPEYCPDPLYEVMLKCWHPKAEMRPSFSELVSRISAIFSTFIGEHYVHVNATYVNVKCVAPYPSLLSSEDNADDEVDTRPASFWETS

Ki [nM]	SMILES
> 2000	Cc1cccc(SCc2nnc3ccc(Nc4cccc(Cl)c4)nn23)c1 [Compound 388]
> 2000	N#Cc1cccc(OCc2nnc3ccc(Nc4cccc(Cl)c4)nn23)c1 [Compound 471]
> 2000	CS(=O)(=O)Nc1ccc(Cc2nnc3ccc(Nc4cccc(Cl)c4)nn23)cc1 [Compound 369]
100 to 2000	CC(C)(C)Nc1ccc2nnc(Cc3ccc(O)cc3)n2n1 [Compound 401]
> 2000	NC(=O)c1ncccc1OCc1nnc2ccc(Nc3cccc(Cl)c3)nn12 [Compound 478]
< 100	COc1ccc(Cl)cc1Nc1ccc2nnc(Cc3ccc(O)cc3)n2n1 [Compound 360]
100 to 2000	Oc1ccc(Cc2nnc3ccc(NC4CC4)nn23)cc1 [Compound 329]
< 100	COc1ccc(Cc2nnc3ccc(Nc4cccc(Cl)c4)nn23)c(Cl)c1 [Compound 440]
< 100	Clc1cccc(Nc2ccc3nnc(Cc4ccc5c(c4)CCO5)n3n2)c1 [Compound 355]
> 2000	c1ccc(C2=Nn3c(Cc4ccncc4)nnc3SC2)cc1 [Compound 529]
< 100	CC1CC(Nc2ccc3nnc(Cc4ccc(O)cc4)n3n2)CC(C)(C)C1 (centres unmarked) [Compound 370]
100 to 2000	COc1ccc(Cc2nnc3n2N=C(c2ccccc2)CS3)cc1 [Compound 530]
> 2000	Clc1cccc(Nc2ccc3nnc(Cc4ccccc4)n3n2)c1 [Compound 315]
> 2000	O=C1NCCCCC1Nc1ccc2nnc(Cc3ccc(O)cc3)n2n1 (centres unmarked) [Compound 307]
100 to 2000	C[C@@H](c1ccc(O)cc1)c1nnc2ccc(Cl)nn12 [Compound 501]
100 to 2000	Clc1cccc(Nc2ccc3nnc(Cc4cc5c(cc4Cl)OCO5)n3n2)c1 [Compound 504]
100 to 2000	CCn1nccc1Nc1ccc2nnc([C@@H](C)c3ccc(O)cc3)n2n1 [Compound 497]
> 2000	Oc1ccc2[nH]cc(Cc3nnc4ccc(Nc5cccc(Cl)c5)nn34)c2c1 [Compound 458]
100 to 2000	CC(=O)N1CCC(Nc2ccc3nnc(Cc4ccc(O)cc4)n3n2)CC1 [Compound 323]
> 2000	COc1ccc(NCc2nnc3ccc(Nc4cccc(Cl)c4)nn23)cc1 [Compound 350]
< 100	CCc1cccc(Nc2ccc3nnc(Cc4ccc(O)cc4)n3n2)c1 [Compound 288]
> 2000	CC(C)Oc1ccc(NCc2nnc3ccc(Nc4cccc(Cl)c4)nn23)cc1 [Compound 393]

Ki [nM]	SMILES
< 100	C[C@@H](c1ccc(O)cc1)c1nnc2ccc(Nc3ccc(F)c(Cl)c3)nn12 [Compound 426]
> 2000	Nc1ccc(Cc2nnc3ccc(Nc4cccc(Cl)c4)nn23)cc1 [Compound 456]
> 2000	Clc1cccc(Nc2ccc3nnc(CNc4cccc(Oc5ccccc5)c4)n3n2)c1 [Compound 334]
> 2000	Clc1cccc(Nc2ccc3nnc(Cc4noc5ccccc45)n3n2)c1 [Compound 438]
> 2000	COc1ccc(NCc2nnc3ccc(Nc4cccc(Cl)c4)nn23)cc1OC [Compound 337]
< 100	Clc1cccc(Nc2ccc3nnc(COc4ccc5cccnc5c4)n3n2)c1 [Compound 423]
< 100	Oc1ccc(Cc2nnc3ccc(Nc4ccc(F)c(Cl)c4)nn23)cc1 [Compound 424]
< 100	CC(c1ccc(O)cc1)c1nnc2ccc(Nc3cccc(Cl)c3)nn12 (centres unmarked) [Compound 321]
> 2000	Clc1cccc(Nc2ccc3nnc(CNc4ccc5cc[nH]c5c4)n3n2)c1 [Compound 477]
< 100	Cc1cc(C)cc(Nc2ccc3nnc(Cc4ccc(O)c(Cl)c4)n3n2)c1 [Compound 296]
100 to 2000	CCOC(=O)c1sc(Nc2ccc3nnc([C@@H](C)c4ccc(O)cc4)n3n2)nc1C [Compound 513]
> 2000	Clc1cccc(Nc2ccc3nnc(COc4ccc5c(c4)OCO5)n3n2)c1 [Compound 503]
< 100	Clc1cccc(Nc2ccc3nnc(C4(c5ccc6c(c5)OCO6)CC4)n3n2)c1 [Compound 400]
100 to 2000	O=C(Cc1ccccc1)N1CCC(Nc2ccc3nnc(Cc4ccc(O)cc4)n3n2)CC1 [Compound 325]
< 100	CC(c1ccc(F)cc1)c1nnc2ccc(Nc3cccc(Cl)c3)nn12 (centres unmarked) [Compound 493]
100 to 2000	NC(c1ccc(F)cc1)c1nnc2ccc(Nc3cccc(Cl)c3)nn12 (centres unmarked) [Compound 492]
< 100	COC(=O)c1ccc(OCc2nnc3ccc(Nc4cccc(Cl)c4)nn23)c(N)c1 [Compound 433]
100 to 2000	Clc1cccc(Nc2ccc3nnc(Cn4cncn4)n3n2)c1 [Compound 517]
< 100	Oc1ccc(Cc2nnc3ccc(Nc4cc(Cl)ccc4F)nn23)cc1 [Compound 359]
> 2000	O=C(O)c1cn(Cc2nnc3ccc(Nc4cccc(Cl)c4)nn23)c2ccccc12 [Compound 461]
> 2000	Oc1ccc(Cc2nnc3ccc(Nc4nncs4)nn23)cc1 [Compound 482]

Same assay, conditions: coupled enzyme system, 200 μM ATP, 10 μM polyGluTyr, 80 nM c-Met, 30° C.; read-out: c-Met Ki

Ki [nM]	SMILES
100 to 2000	Cc1ccc(Nc2nn3c(Cc4ccc(O)cc4)nnc3s2)cc1C [Compound 72]
100 to 2000	Clc1ccccc1Nc1nn2c(Cc3ccc4c(c3)OCO4)nnc2s1 [Compound 68]
100 to 2000	CN1CCC(Nc2ccc3nnc(Cc4ccc(O)cc4)n3n2)CC1 [Compound 283]
> 2000	Oc1ccc(Cc2nnc3ccc(N4CCC(c5ccccc5)C4)nn23)cc1 (centres unmarked) [Compound 201]
< 100	C[C@H](c1ccc(O)cc1)c1nnc2sc(Nc3cccc(F)c3)nn12 [Compound 106]
100 to 2000	Cc1cccc(Nc2nn3c(Cn4ccc5ncccc54)nnc3s2)c1 [Compound 135]
< 100	CC(c1nnc2sc(Nc3cccc(Cl)c3)nn12)n1ccc2ncccc21 (centres unmarked) [Compound 161]
100 to 2000	CC(C)C[C@@H](CO)Nc1ccc2nnc(Cc3ccc(O)cc3)n2n1 [Compound 188]
> 2000	NC(=O)C1CCCN(c2ccc3nnc(Cc4ccc(O)cc4)n3n2)C1 (centres unmarked) [Compound 179]
> 2000	COc1cc(Cc2nnc3sc(Nc4cccnc4)nn23)ccc1O [Compound 51]
> 2000	CC(=O)Nc1ccc(NCc2nnc3ccc(-c4ccccc4)nn23)cc1 [Compound 209]
< 100	Oc1ccc(Cc2nnc3sc(Nc4cccc(F)c4F)nn23)cc1Cl [Compound 128]
> 2000	Nc1nn2c(Cc3ccc(OCc4ccccc4)cc3)nnc2s1 [Compound 1]
100 to 2000	COc1cccc(Nc2nn3c(Cc4ccc5c(c4)OCO5)nnc3s2)c1 [Compound 34]
> 2000	Oc1cccc(CCc2nnc3sc(Nc4cc(F)cc(F)c4)nn23)c1 [Compound 120]
100 to 2000	CC(C)C(CO)Nc1ccc2nnc(Cc3ccc(O)cc3)n2n1 (centres unmarked) [Compound 282]
100 to 2000	COc1ccc([C@H](C)c2nnc3sc(Nc4cccc(Cl)c4)nn23)cc1 [Compound 157]
100 to 2000	OCc1cccc(Nc2ccc3nnc(Cc4ccc(O)c(F)c4)n3n2)c1 [Compound 260]
< 100	N#Cc1cccc(Nc2ccc3nnc(Cc4ccc5c(c4)OCO5)n3n2)c1 [Compound 221]
100 to 2000	FC(F)(F)c1cccc(Nc2ccc3nnc(Cc4ccncc4)n3n2)c1 [Compound 227]
> 2000	c1cc2c(cc1Cc1nnc3sc(NCC4CCCO4)nn13)OCO2 (centres unmarked) [Compound 42]
> 2000	CC(c1ccc(O)cc1)c1nnc2sc(C(=O)N3CCCC3)nn12 (centres unmarked) [Compound 89]
> 2000	Oc1ccc(Cc2nnc3sc(NCCN4CCOCC4)nn23)cc1 [Compound 15]

Ki [nM]	SMILES
> 2000	COc1cccc(Nc2ccc3nnc(Cc4ccncc4)n3n2)c1 [Compound 244]
< 100	O=c1[nH]c2ccc(Nc3ccc4nnc(Cc5ccc(O)cc5)n4n3)cc2[nH]1 [Compound 216]
100 to 2000	Fc1cccc(Nc2nn3c(Cn4ccc5ncccc54)nnc3s2)c1 [Compound 134]
< 100	Oc1ccc(Cc2nnc3sc(Nc4ccc(Cl)cc4)nn23)cc1 [Compound 52]
< 100	Oc1ccc(Cc2nnc3sc(Nc4cc(F)cc(F)c4)nn23)cc1Cl [Compound 104]
> 2000	COC(=O)c1ccccc1Nc1nn2c(Cc3ccc(O)cc3)nnc2s1 [Compound 69]
< 100	Oc1ccc(Cc2nnc3sc(Nc4ccc(Cl)cc4)nn23)cc1F [Compound 54]
100 to 2000	CNC(=O)c1cccc(Nc2ccc3nnc(Cc4ccc(O)c(F)c4)n3n2)c1 [Compound 233]
> 2000	Oc1ccc(CCc2nnc3sc(Nc4cccc(F)c4)nn23)cc1 [Compound 93]
> 2000	c1ccc([C@@H]2C[C@H]2c2nn3c(Cc4ccc5c(c4)OCO5)nnc3s2)cc1 [Compound 47]
100 to 2000	Cc1cc(F)ccc1Nc1nn2c(Cc3ccc(O)cc3)nnc2s1 [Compound 76]
100 to 2000	COc1cccc(Nc2ccc3nnc(Cc4ccc(O)c(Cl)c4)n3n2)c1 [Compound 241]
100 to 2000	Oc1ccc(Cc2nnc3sc(Nc4ccc(Cl)cc4)nn23)cc1Cl [Compound 55]
100 to 2000	Oc1ccc(Cc2nnc3ccc(N4CCCCC4)nn23)cc1 [Compound 177]
> 2000	c1ccc(-c2ccc3nnc(CNc4ccncc4)n3n2)cc1 [Compound 211]
100 to 2000	CC(O)c1cccc(Nc2ccc3nnc(Cc4ccc(O)c(F)c4)n3n2)c1 (centres unmarked) [Compound 256]
> 2000	c1coc(-c2nn3c(Cc4ccc5c(c4)OCO5)nnc3s2)c1 [Compound 48]
< 100	C[C@@H](c1ccc(O)cc1)c1nnc2sc(Nc3cncc(Cl)c3)nn12 [Compound 162]
100 to 2000	COc1cccc(Nc2ccc3nnc(Cc4ccc5c(c4)OCO5)n3n2)c1 [Compound 243]
100 to 2000	CN(c1ccc2nnc(Cc3ccc(O)cc3)n2n1)C1CCCCC1 [Compound 196]
100 to 2000	Cc1cccc(Nc2ccc3nnc(Cc4ccc(O)c(Cl)c4)n3n2)c1 [Compound 228]
100 to 2000	c1csc(-c2nn3c(Cc4ccc5c(c4)OCO5)nnc3s2)c1 [Compound 2, 3-((benzo[d][1,3]dioxol-5-yl)methyl)-6-(thiophen-2-yl)-[1,2,4]triazolo[3,4-b][1,3,4]thiadiazole]
100 to 2000	COc1ccccc1Nc1nn2c(Cc3ccc(O)cc3)nnc2s1 [Compound 29]
